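Briefly, cells in 96-well plates were exposed to five compound concentrations for 48 h, and endpoints were estimated by linear interpolation. GI50 marks 50% less growth. TGI is the concentration that stops growth completely.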
Assays:
Assay in all cases: DTP human tumour cell line panel, 48 h
SF-539 CNS = tested on: SF-539 CNS
T-47D breast = tested on: T-47D breast
MDA-MB-231 breast = tested on: MDA-MB-231 breast
OVCAR-5 ovarian = tested on: OVCAR-5 ovarian
SF-268 CNS = tested on: SF-268 CNS
UO-31 renal = tested on: UO-31 renal
DU-145 prostate = tested on: DU-145 prostate
SF-295 CNS = tested on: SF-295 CNS
RXF 393 renal = tested on: RXF 393 renal
SNB-75 CNS = tested on: SNB-75 CNS
HCC-2998 colon = tested on: HCC-2998 colon
SN12C renal = tested on: SN12C renal
HT29 colon = tested on: HT29 colon
SK-MEL-5 melanoma = tested on: SK-MEL-5 melanoma
OVCAR-4 ovarian = tested on: OVCAR-4 ovarian
OVCAR-8 ovarian = tested on: OVCAR-8 ovarian
SK-MEL-28 melanoma = tested on: SK-MEL-28 melanoma
786-0 renal = tested on: 786-0 renal
PC-3 prostate = tested on: PC-3 prostate
UACC-62 melanoma = tested on: UACC-62 melanoma
SR leukemia = tested on: SR leukemia
OVCAR-3 ovarian = tested on: OVCAR-3 ovarian
NCI-H460 lung = tested on: NCI-H460 lung
MOLT-4 leukemia = tested on: MOLT-4 leukemia
HOP-62 NSCLC = tested on: HOP-62 NSCLC
NCI/ADR-RES ovarian = tested on: NCI/ADR-RES ovarian
HCT-116 colon = tested on: HCT-116 colon
A498 renal = tested on: A498 renal
CCRF-CEM leukemia = tested on: CCRF-CEM leukemia
SK-MEL-2 melanoma = tested on: SK-MEL-2 melanoma
UACC-257 melanoma = tested on: UACC-257 melanoma
SW-620 colon = tested on: SW-620 colon
A549 NSCLC = tested on: A549 NSCLC
M14 melanoma = tested on: M14 melanoma
CAKI-1 renal = tested on: CAKI-1 renal
SNB-19 CNS = tested on: SNB-19 CNS
HOP-92 NSCLC = tested on: HOP-92 NSCLC
SK-OV-3 ovarian = tested on: SK-OV-3 ovarian
K-562 leukemia = tested on: K-562 leukemia
LOX IMVI melanoma = tested on: LOX IMVI melanoma
COLO 205 colon = tested on: COLO 205 colon
U251 CNS = tested on: U251 CNS
TK-10 renal = tested on: TK-10 renal
MDA-MB-435 = tested on: MDA-MB-435
RPMI-8226 leukemia = tested on: RPMI-8226 leukemia
HCT-15 colon = tested on: HCT-15 colon
MCF7 breast = tested on: MCF7 breast
MALME-3M melanoma = tested on: MALME-3M melanoma
HL-60(TB) leukemia = tested on: HL-60(TB) leukemia
NCI-H226 lung = tested on: NCI-H226 lung
HS 578T breast = tested on: HS 578T breast
NCI-H522 lung = tested on: NCI-H522 lung
ACHN renal = tested on: ACHN renal
BT-549 breast = tested on: BT-549 breast
IGROV1 ovarian = tested on: IGROV1 ovarian
NCI-H23 lung = tested on: NCI-H23 lung
KM12 colon = tested on: KM12 colon

## CC(=O)N1CCC(Nc2ncc3cc(Oc4ccc(F)cc4F)c(=O)n(C)c3n2)CC1
SF-539 CNS
  GI50: > 25 µM
  TGI: > 25 µM
T-47D breast
  GI50: > 25 µM
  TGI: > 25 µM
MDA-MB-231 breast
  GI50: > 25 µM
  TGI: > 25 µM
OVCAR-5 ovarian
  GI50: > 25 µM
  TGI: > 25 µM
SF-268 CNS
  GI50: > 25 µM
  TGI: > 25 µM
UO-31 renal
  GI50: > 17.7 µM
  TGI: > 25 µM
DU-145 prostate
  GI50: > 25 µM
  TGI: > 25 µM
SF-295 CNS
  GI50: > 25 µM
  TGI: > 25 µM
RXF 393 renal
  GI50: > 16.9 µM
  TGI: > 25 µM
SNB-75 CNS
  GI50: > 22 µM
  TGI: > 25 µM
HCC-2998 colon
  GI50: > 25 µM
  TGI: > 25 µM
SN12C renal
  GI50: > 25 µM
  TGI: > 25 µM
HT29 colon
  GI50: > 25 µM
  TGI: > 25 µM
SK-MEL-5 melanoma
  GI50: > 25 µM
  TGI: > 25 µM
OVCAR-4 ovarian
  GI50: > 18.8 µM
  TGI: > 25 µM
OVCAR-8 ovarian
  GI50: > 25 µM
  TGI: > 25 µM
SK-MEL-28 melanoma
  GI50: > 25 µM
  TGI: > 25 µM
786-0 renal
  GI50: > 25 µM
  TGI: > 25 µM
PC-3 prostate
  GI50: > 25 µM
  TGI: > 25 µM
UACC-62 melanoma
  GI50: > 25 µM
  TGI: > 25 µM
SR leukemia
  GI50: > 25 µM
  TGI: > 25 µM
OVCAR-3 ovarian
  GI50: > 25 µM
  TGI: > 25 µM
NCI-H460 lung
  GI50: > 25 µM
  TGI: > 25 µM
MOLT-4 leukemia
  GI50: > 25 µM
  TGI: > 25 µM
HOP-62 NSCLC
  GI50: > 25 µM
  TGI: > 25 µM
NCI/ADR-RES ovarian
  GI50: > 25 µM
  TGI: > 25 µM
HCT-116 colon
  GI50: > 25 µM
  TGI: > 25 µM
A498 renal
  GI50: 9.26 µM
  TGI: > 25 µM
CCRF-CEM leukemia
  GI50: > 25 µM
  TGI: > 25 µM
SK-MEL-2 melanoma
  GI50: > 25 µM
  TGI: > 25 µM
UACC-257 melanoma
  GI50: > 25 µM
  TGI: > 25 µM
SW-620 colon
  GI50: > 25 µM
  TGI: > 25 µM
A549 NSCLC
  GI50: > 25 µM
  TGI: > 25 µM
M14 melanoma
  GI50: > 25 µM
  TGI: > 25 µM
CAKI-1 renal
  GI50: > 25 µM
  TGI: > 25 µM
SNB-19 CNS
  GI50: > 25 µM
  TGI: > 25 µM
HOP-92 NSCLC
  GI50: 2.45 µM
  TGI: > 25 µM
SK-OV-3 ovarian
  GI50: > 25 µM
  TGI: > 25 µM
K-562 leukemia
  GI50: > 25 µM
  TGI: > 25 µM
LOX IMVI melanoma
  GI50: > 25 µM
  TGI: > 25 µM
COLO 205 colon
  GI50: > 25 µM
  TGI: > 25 µM
U251 CNS
  GI50: > 25 µM
  TGI: > 25 µM
TK-10 renal
  GI50: > 25 µM
  TGI: > 25 µM
MDA-MB-435
  GI50: > 25 µM
  TGI: > 25 µM
RPMI-8226 leukemia
  GI50: > 25 µM
  TGI: > 25 µM
HCT-15 colon
  GI50: > 25 µM
  TGI: > 25 µM
MCF7 breast
  GI50: > 25 µM
  TGI: > 25 µM
MALME-3M melanoma
  GI50: > 25 µM
  TGI: > 25 µM
HL-60(TB) leukemia
  GI50: > 25 µM
  TGI: > 25 µM
NCI-H226 lung
  GI50: > 25 µM
  TGI: > 25 µM
HS 578T breast
  GI50: 8.69 µM
  TGI: > 25 µM
NCI-H522 lung
  GI50: > 25 µM
  TGI: > 25 µM
ACHN renal
  GI50: > 25 µM
  TGI: > 25 µM
BT-549 breast
  GI50: > 25 µM
  TGI: > 25 µM
IGROV1 ovarian
  GI50: > 25 µM
  TGI: > 25 µM
NCI-H23 lung
  GI50: > 25 µM
  TGI: > 25 µM
KM12 colon
  GI50: > 25 µM
  TGI: > 25 µM
